According to US6482804B1, “Compositions and methods for delivery of genetic material” (Wyeth, priority 1997, dated 2002):

Test: Scanning and transmission electron microscopy (SEM/TEM) of surfactant:DNA complexes
Assay type: physicochemical
Settings: aqueous formulations
Method: Scanning electron microscopy (SEM) and transmission electron microscopy (TEM) were employed to visualize the resulting complexes formed by the benzylammonium-containing surfactant and polynucleic acid compositions of this invention.
Each formulation containing 8.71% sucrose w/v and 5 mM phosphate buffer at pH6.7±0.5.
ii. […] However, upon addition of DNA, vesicular complexes are formed, when observed by SEM.
iii. […] Similar particle distribution was found at both concentrations of DNA, but in larger numbers with higher DNA concentrations. Larger particles in higher DNA concentrations appear to have derived from the fusion of several 50 nm particles. Formation of larger particles was dependent on the concentration of DNA in the formulation. These particles were visualized by shadow casting in SEM analysis using carbon, and were visible by short (10 second) exposure to the contrasting agent uranyl acetate in TEM analysis. The TEMs show membranous structures typical of liposomes described in literature.
As controls, SEM of DNA alone and benzalkonium chloride alone in aqueous solutions were performed. Vesicular structures are found only when aqueous solutions of DNA and benzalkonium chloride are mixed. TEMs show structures that are vesicular and some are multilamellar. Membranous structures found in these TEMs are consistent with the formation of lamellar vesicular complexes in liposomes.

benzalkonium chloride
structures seen by SEM/TEM: does not form vesicular complexes
